Publication PMC9137622, “OPDAylation of Thiols of the Redox Regulatory Network In Vitro” (Antioxidants, 2022)

Key:
[1] = molecular target: T1, GRX-C2 (Arabidopsis thaliana, UniProt Q9FNE2); experiment: HED assay, NADPH oxidation at […] nm; assay type: biochemical; conditions: 2 mM GSH, 0.7 mM HED, 1 µM GR, 0.1 µM GRX, pH 7.5, RT
T1 construct: gene GRXC2

[2] = molecular target: T2, GAPC2 (Arabidopsis thaliana, UniProt Q9FX54); experiment: NADH consumption at […] nm, PGK-coupled; assay type: biochemical; conditions: 8 mM 3-PGA, 4 mM ATP, 90 nM PGK, pH 7.8, RT
T2 construct: His10-tagged, E. coli, Ni-NTA

[3] = molecular target: T3, TRX-m4 (Arabidopsis thaliana, UniProt Q9SEU6); experiment: HPLC depletion of free OPDA, mPEG-maleimide shift; assay type: binding; conditions: covalent; 200 µM OPDA, 50 or 100 µM reduced protein, pH 7.2, at least 2 h, RT
T3 construct: gene At3g15360; His-tagged, E. coli, Ni-NTA
T3 sequence (Q9SEU6 83-193): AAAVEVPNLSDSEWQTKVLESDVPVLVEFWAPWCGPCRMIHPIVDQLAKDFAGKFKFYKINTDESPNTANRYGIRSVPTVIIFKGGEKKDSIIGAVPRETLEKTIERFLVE

[4] = molecular target: T4, PRXIIB (Arabidopsis thaliana, UniProt Q9XEX2); experiment: coupled H2O2 reduction (GR/GSH/GRXC2), NADPH oxidation at […] nm; assay type: biochemical; conditions: 20 µM reduced PRXIIB preincubated with 150 µM OPDA 1 h, then 3 µM in assay, pH 7.5; weak effect
T4 sequence (Q9XEX2 1-162): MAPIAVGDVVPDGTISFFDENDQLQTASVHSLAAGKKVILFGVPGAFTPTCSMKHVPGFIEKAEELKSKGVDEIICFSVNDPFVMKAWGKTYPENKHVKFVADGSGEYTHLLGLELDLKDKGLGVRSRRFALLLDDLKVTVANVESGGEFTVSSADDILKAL

[5] = molecular target: T3, TRX-m4; experiment: coupled GPXL8 H2O2 reduction, NADPH oxidation at […] nm; assay type: biochemical; conditions: covalent; 20 µM reduced protein preincubated with 150 µM OPDA 1 h, then 5 µM in NTRA/GPXL8 assay, pH 7.5
[6] = molecular target: T5, TRX-h3 (Arabidopsis thaliana, UniProt Q42403); experiment: as above; assay type: biochemical; conditions: covalent; 20 µM reduced protein preincubated with 150 µM OPDA 1 h, then 0.25 µM in NTRA/GPXL8 assay, pH 7.5
T5 construct: gene TRX3
T5 sequence (Q42403 1-118 limits assumed): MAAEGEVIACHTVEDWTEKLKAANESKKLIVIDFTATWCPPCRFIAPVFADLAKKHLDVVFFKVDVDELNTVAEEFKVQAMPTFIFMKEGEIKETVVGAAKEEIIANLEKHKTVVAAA

[7] = molecular target: T6, TRX-f1 (Arabidopsis thaliana, UniProt Q9XFH8); experiment: HPLC depletion of free OPDA, mPEG-maleimide shift; assay type: binding; conditions: covalent; 200 µM OPDA, 50 or 100 µM reduced protein, pH 7.2, at least 2 h, RT
T6 construct: gene At3g02730; His-tagged, E. coli, Ni-NTA
T6 sequence (Q9XFH8 58-178): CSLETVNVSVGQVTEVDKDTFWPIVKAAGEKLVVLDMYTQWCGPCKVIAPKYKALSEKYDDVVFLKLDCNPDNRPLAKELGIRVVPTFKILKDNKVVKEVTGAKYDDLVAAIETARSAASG

[8] = molecular target: T7, TRX-h5 (Arabidopsis thaliana, UniProt Q39241); experiment: HPLC depletion of free OPDA, mPEG-maleimide shift; assay type: binding; conditions: covalent; 200 µM OPDA, 50 or 100 µM reduced protein, pH 7.2, at least 2 h, RT
T7 construct: gene TRX5
T7 sequence (Q39241 1-118 limits assumed): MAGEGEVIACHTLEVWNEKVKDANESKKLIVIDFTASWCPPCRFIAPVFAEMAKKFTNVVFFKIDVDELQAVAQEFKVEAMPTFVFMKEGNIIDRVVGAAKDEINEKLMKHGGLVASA

[9] = molecular target: T7, TRX-h5; experiment: coupled GPXL8 H2O2 reduction, NADPH oxidation at […] nm; assay type: biochemical; conditions: covalent; 20 µM reduced protein preincubated with 150 µM OPDA 1 h, then 0.25 µM in NTRA/GPXL8 assay, pH 7.5

T2 sequence (Q9FX54 whole entry): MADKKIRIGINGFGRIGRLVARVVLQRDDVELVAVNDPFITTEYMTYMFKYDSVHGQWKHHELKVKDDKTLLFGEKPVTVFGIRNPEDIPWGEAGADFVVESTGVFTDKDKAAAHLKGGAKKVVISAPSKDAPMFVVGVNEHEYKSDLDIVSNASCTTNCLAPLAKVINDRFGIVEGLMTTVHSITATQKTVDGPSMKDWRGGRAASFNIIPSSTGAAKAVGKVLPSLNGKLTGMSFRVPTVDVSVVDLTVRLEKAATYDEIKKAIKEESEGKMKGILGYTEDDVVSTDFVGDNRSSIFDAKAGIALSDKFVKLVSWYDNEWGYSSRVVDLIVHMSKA
T1 sequence (Q9FNE2 whole entry): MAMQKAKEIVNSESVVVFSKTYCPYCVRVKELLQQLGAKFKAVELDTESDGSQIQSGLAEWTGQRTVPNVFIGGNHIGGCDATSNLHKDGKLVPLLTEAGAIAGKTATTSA

OCCSSCCO [HED, hydroxyethyldisulfide]
HED assay, NADPH oxidation at 340 nm [1]: HED assay to determine GRX-dependent reduction activity

NC(=O)C1=CN([C@@H]2O[C@H](COP(=O)(O)OP(=O)(O)OC[C@H]3O[C@@H](n4cnc5c(N)ncnc54)[C@H](O)[C@@H]3O)[C@@H](O)[C@H]2O)C=CC1 [NADH]
NADH consumption at 340 nm, PGK-coupled [2]: coupled activity of phosphoglycerate kinase and GAPDH was measured as consumption of NADH

CC/C=C\C[C@@H]1C(=O)C=C[C@@H]1CCCCCCCC(=O)O [OPDA, cis-(+)-12-oxophytodienoic acid]
HPLC depletion of free OPDA, mPEG-maleimide shift [3]: three thiols in the case of TRX-f1 and TRX-m4 | inhibition [4]: OPDA seems to act directly on PRXIIB at a low level | inhibition [5]: ~ 60% | inhibition [6]: ~ 80% | HPLC depletion of free OPDA, mPEG-maleimide shift [7]: three thiols in the case of TRX-f1 and TRX-m4 | HPLC depletion of free OPDA, mPEG-maleimide shift [8]: two thiols reacted with OPDA in the case of TRX-h3 and TRX-h5 | inhibition [9]: ~ 80%
